Assay results: patent publication US20230399327A1, “HIGH ACTIVITY HPK1 KINASE INHIBITOR” (ADLAI NORTYE BIOPHARMA CO., LTD., priority 2020, published 2023)

What was measured:
[1] = test system: DC2.4 cells; assay: DC2.4 IL-6 ELISA assay (IL-6 secretion after LPS); format: cell-based, mouse; conditions: highest signal vs 0.1% DMSO, 24 h
Experimental: Test Example 4: Detection of Compound's Activating Ability to Stimulate DC2.4 Cells to Secrete Cytokine Interleukin-6 (IL-6) ([…])
The specific operation is as follows: the compound powder was dissolved in DMSO to 10 mM, 2 μl of the compound was added to 998 μl of RPMI 1640 medium (contained 10% FBS in this test), and the highest concentration point was obtained after vortexing. The compound solution was gradually diluted 3 times with 0.2% DMSO medium, with a total of 8 concentration points. That treated with RPMI 1640 medium solution containing 0.1% DMSO was used as a control. Add 10^5 DC2.4 cells to each well of Corning 96-well cell culture plate (product number: 3599), then add an equal volume of compound dilution, add RPMI 1640 medium containing 0.2% DMSO to the control group, and place the cells at 37° C. to incubate for 1 h in an incubator (Thermo Fisher Scientific, model: 3111). Subsequently, LPS was added at a final concentration of 3.2 ng/ml, and placed in a cell culture incubator at 37° C. for 24 hours. Mouse IL-6 DuoSet ELISA KIT was used to detect the IL-6 content in the cell supernatant, and the Mouse […] DuoSet ELISA detection was carried out according to the operating instructions of the kit. Data are described as the highest fold ratio of the stimulated signal of the compound to the signal of 0.1% DMSO.

[2] = target: HPK1 kinase (Homo sapiens (Human), UniProt Q92918); assay: HPK1 kinase activity inhibition (ADP-Glo Kinase Assay); format: biochemical; conditions: HPK1, MBP substrate, ATP, 25° C. 60 min
Experimental: Test Example 1: Detection of Compound's Ability to Inhibit HPK1 Kinase Activity (Method 1)
The specific operation is as follows: configure the enzymatic reaction system buffer (10 mM MOPS, pH 7.2, 5 mM β-glycerol-phosphate, 10 mM MgCl2, 0.8 mM EDTA, 2 mM EGTA, 0.1 mM DTT); the test compound (1 mM the compound stock solution in DMSO) was diluted with buffer to the highest concentration of 60 uM (containing 6% DMSO), and the compound with a concentration of 60 μM was initially diluted 5 times with a buffer containing 6% DMSO for a total of 8 points of gradient concentration; then dilute HPK1 kinase to 30 nM in buffer. Add 2 μl of HPK1 kinase diluent to each well of a Greiner 384-well microplate (Cat. No. 784075), and add 2 μl of buffer to the control well; add 1 μl of the diluted compound to the reaction well after brief centrifugation, and add 1 μl buffer solution containing 6% DMSO to the control well; after short centrifugation, place in a 25° C. constant temperature incubator (Shanghai Yiheng Scientific Instrument Co., Ltd., Cat. No.: LRH-150) and incubate for 20 minutes. Add 3 μl of reaction substrate (10 μM MBP and 20 μM ATP dissolved in distilled water) to each well, briefly centrifuge and incubate in a constant temperature incubator at 25° C. for 60 min, and use ADP-Glo Kinase Assay Kit to detect the enzymatic reaction activity, ADP-Glo Kinase Assay Kit detection is carried out according to the operating instructions of the kit. Data are described using the half maximal inhibitory concentration IC50 of the compound.

[3] = test system: PBMC; assay: PBMC IL-2 ELISA assay (IL-2 secretion after anti-CD3/anti-CD28); format: cell-based, human; conditions: highest signal vs 0.1% DMSO, anti-CD3/CD28, 24 h
Experimental: Test Example 5: Detection of Compound's Activating Ability to Secrete Cytokine Interleukin-2 (IL-2) from PBMC (Method 5)
The specific operation is as follows: the compound powder was dissolved in DMSO to 10 mM, 2 μl of the compound was added to 998 μl of RPMI 1640 medium (contained 10% FBS in this test), and the highest concentration point was obtained after vortexing. The compound solution was gradually diluted 3 times with 0.2% DMSO medium, with a total of 8 concentration points. That treated with RPMI 1640 medium solution containing 0.1% DMSO was used as a control. 1×10˜ 5 PBMC cells were added to each well of Corning 96-well cell culture plate (item number: 3599), and then the same volume of compound diluent was added to the control group. RPMI 1640 medium containing 0.2% DMSO was added to the control group and incubated in a 37° C. cell incubator (Thermo Fisher Scientific, model: 3111) for 1 hour. Then add Anti-human CD3 Antibody and 1 μg/ml Anti-human CD28 Antibody at a final concentration of 0.1 μg/ml, and place in a 37° C. cell culture incubator to incubate for 24 hours. The Human IL-2 DuoSet ELISA KIT was used to detect the IL-2 content in the cell supernatant, and the Human IL-2 DuoSet ELISA detection was performed according to the operating instructions of the kit. Data are described as the highest fold ratio of the stimulated signal of the compound to the signal of 0.1% DMSO.

[4] = test system: mouse spleen cells; assay: Spleen IL-2 ELISA assay (IL-2 secretion after Concanavalin A); format: cell-based, mouse (C57BL/6); conditions: highest signal vs 0.1% DMSO, ConA, 24 h
Experimental: Test Example 3: Detection of Compound's Activating Ability to Secrete Cytokine Interleukin-2 (IL-2) from Mouse Spleen Cells (Method 3)
The specific operation is as follows: the compound powder was dissolved in DMSO to 10 mM, 2 μl of the compound was added to 998 μl of RPMI 1640 medium (contained 10% FBS in this test), and the highest concentration point was obtained after vortexing. The compound solution was gradually diluted 3 times with 0.2% DMSO medium, with a total of 8 concentration points. That treated with RPMI 1640 medium solution containing 0.1% DMSO was used as a control. Add 10^5 mouse spleen cells to each well of Corning 96-well cell culture plate (product number: 3599), then add an equal volume of compound dilution, add RPMI 1640 medium containing 0.2% DMSO to the control group, and place the cells at 37° C. to incubate for 1 h in a cell culture incubator (Thermo Fisher Scientific, model: 3111). Then add Concanavalin A at a final concentration of 0.4 μg/ml and place in a cell culture incubator at 37° C. for 24 hours. Mouse IL-2 DuoSet ELISA KIT was used to detect the IL-2 content in the cell supernatant, and the Mouse […] DuoSet ELISA detection was carried out according to the operating instructions of the kit. Data are described as the highest fold ratio of the stimulated signal of the compound to the signal of 0.1% DMSO.

[5] = at compound concentration 1.11 μM
[6] = at compound concentration 0.37 μM
[7] = at compound concentration 1.1 μM
[8] = at compound concentration 3.3 μM
[9] = at compound concentration 10 μM

Chain of HPK1 kinase (Q92918 whole entry): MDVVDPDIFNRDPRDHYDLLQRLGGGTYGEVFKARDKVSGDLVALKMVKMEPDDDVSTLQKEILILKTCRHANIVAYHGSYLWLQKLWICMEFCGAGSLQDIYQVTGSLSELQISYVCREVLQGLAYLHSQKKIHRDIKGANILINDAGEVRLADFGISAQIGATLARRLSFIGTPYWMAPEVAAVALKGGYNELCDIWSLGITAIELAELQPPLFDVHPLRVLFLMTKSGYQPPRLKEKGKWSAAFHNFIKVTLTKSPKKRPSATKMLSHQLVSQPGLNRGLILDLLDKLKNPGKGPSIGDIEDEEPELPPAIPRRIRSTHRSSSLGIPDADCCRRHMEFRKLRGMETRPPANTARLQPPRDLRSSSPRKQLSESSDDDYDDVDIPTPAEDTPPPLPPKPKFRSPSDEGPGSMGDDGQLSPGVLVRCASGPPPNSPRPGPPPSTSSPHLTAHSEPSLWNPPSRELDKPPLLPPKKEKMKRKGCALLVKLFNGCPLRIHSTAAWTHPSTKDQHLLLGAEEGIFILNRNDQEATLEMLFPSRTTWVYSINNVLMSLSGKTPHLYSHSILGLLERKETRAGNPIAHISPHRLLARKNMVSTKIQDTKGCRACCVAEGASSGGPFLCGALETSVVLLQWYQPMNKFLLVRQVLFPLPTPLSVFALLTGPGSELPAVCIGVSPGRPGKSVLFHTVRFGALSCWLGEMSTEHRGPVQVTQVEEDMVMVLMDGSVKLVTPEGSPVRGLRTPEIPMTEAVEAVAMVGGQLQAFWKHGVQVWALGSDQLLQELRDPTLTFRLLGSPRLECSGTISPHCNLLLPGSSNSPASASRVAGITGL

Row | Compound | % IL-6 increased (relative to DMSO control) [1, 5] [%] | IC50 [2] [nM] | also measured
1 | COc1nc2c(cc1Nc1ncc3ccnc(N[C@H]4CCC[C@H]4O)c3n1)CN(C)CC2 [Example 104] | 341.00 | < 0.1 | % IL-2 increased (relative to DMSO control) [3, 6]: 139%; % IL-2 increased (relative to DMSO control) ([4]; at compound concentration 0.0046 μM): 120%
2 | COc1nc2c(cc1Nc1ncc3ccnc(N[C@H]4CCC[C@@H]4O)c3n1)CN(C)CC2 [Example 105] | 321.00 | < 0.1 | % IL-2 increased (relative to DMSO control) [3, 7]: 176%; % IL-2 increased (relative to DMSO control) [4, 7]: 170%
3 | COc1nc2c(cc1Nc1ncc3ccnc(N[C@@H]4CCC[C@@H]4O)c3n1)CN(C)CC2 [Example 102] | 553.00 | < 0.1 | % IL-2 increased (relative to DMSO control) [4, 8]: 180%
4 | COc1nc2c(cc1Nc1ncc3ccnc(N[C@@H]4CC[C@@H](O)C4)c3n1)CN(C)CC2 [Example 100] | 623.00 | < 0.1 | % IL-2 increased (relative to DMSO control) [3, 6]: 239%; % IL-2 increased (relative to DMSO control) [4, 8]: 190%
5 | COc1nc2c(cc1Nc1ncc3ccnc(N[C@@H]4CCC[C@H]4O)c3n1)CN(C)CC2 [Example 99] |  | < 0.1 | % IL-6 increased (relative to DMSO control) [1, 9]: 526.00%; % IL-2 increased (relative to DMSO control) [3, 7]: 236%
6 | COc1nc2c(cc1Nc1ncc3ccnc(N[C@@H](CO)C(C)C)c3n1)CN(C)CC2 [Example 92] |  | 0.23 | % IL-6 increased (relative to DMSO control) [1, 6]: 546.00%; % IL-2 increased (relative to DMSO control) [3, 6]: 182%; % IL-2 increased (relative to DMSO control) [4, 6]: 160%
7 | CN1CCc2c(cc(Nc3ncc4ccnc(N5CCCCCC5)c4n3)c(=O)n2C)C1 [Example 80, 3-((8-(azepan-1-yl)pyrido[3,4-d]pyrimidin-2-yl)amino)-1,6-dimethyl-5,6,7,8-tetrahydro-1,6-naphthyridin-2(1H)-one] |  | 0.61 | 
8 | 3-((8-(3,3-difluoropyrrolidin-1-yl)pyrido[3,4-d]pyrimidin-2-yl)amino)-1,6-dimethyl-5,6, 7,8-tetrahydro-1,6-naphthyridin-2(1H)-one [Example 85] |  | 25.3 | % IL-6 increased (relative to DMSO control) [1, 9]: 305.00%; % IL-2 increased (relative to DMSO control) [3, 9]: 339%; % IL-2 increased (relative to DMSO control) [4, 9]: 260%
9 | COc1cccc(F)c1-c1cccc2cnc(Nc3cc4c(nc3OC)CCN(C)C4)nc12 [Example 21, 8-(2-fluoro-6-methoxyphenyl)-N-(2-methoxy-6-methyl-5,6,7,8-tetrahydro-1,6-naphthyridine-3-base) quinazolin-2-amine] |  | < 0.1 | 
10 | CN1CCc2[nH]c(=O)c(Nc3ncc4ccnc(N5CCC(F)(F)CC5)c4n3)cc2C1 [Example 74, 3-((8-(4,4-difluoropiperidin-1-yl)pyrido[3,4-d]pyrimidin-2-yl)amino)-6-methyl-5,6,7,8-tetrahydro-1,6-naphthyridin-2(1H)-one] |  | 15.8 | 
11 | COc1nc2c(cc1Nc1ncc3ccnc(NCC(C)(C)C)c3n1)CN(C)CC2 [Example 41, N2-(2-methoxy-6-methyl-5,6,7,8-tetrahydro-1,6-naphthyridin-3-yl)-N8-neopentylpyrido[3,4-d]pyrimidine-2,8-diamine] |  | < 0.1 | 
